Article PMC7513592 (RSC Medicinal Chemistry, 2020)

Target: T1, hTRPV6 (Homo sapiens, UniProt Q9H1D0)
T1 sequence (Q9H1D0 1-765): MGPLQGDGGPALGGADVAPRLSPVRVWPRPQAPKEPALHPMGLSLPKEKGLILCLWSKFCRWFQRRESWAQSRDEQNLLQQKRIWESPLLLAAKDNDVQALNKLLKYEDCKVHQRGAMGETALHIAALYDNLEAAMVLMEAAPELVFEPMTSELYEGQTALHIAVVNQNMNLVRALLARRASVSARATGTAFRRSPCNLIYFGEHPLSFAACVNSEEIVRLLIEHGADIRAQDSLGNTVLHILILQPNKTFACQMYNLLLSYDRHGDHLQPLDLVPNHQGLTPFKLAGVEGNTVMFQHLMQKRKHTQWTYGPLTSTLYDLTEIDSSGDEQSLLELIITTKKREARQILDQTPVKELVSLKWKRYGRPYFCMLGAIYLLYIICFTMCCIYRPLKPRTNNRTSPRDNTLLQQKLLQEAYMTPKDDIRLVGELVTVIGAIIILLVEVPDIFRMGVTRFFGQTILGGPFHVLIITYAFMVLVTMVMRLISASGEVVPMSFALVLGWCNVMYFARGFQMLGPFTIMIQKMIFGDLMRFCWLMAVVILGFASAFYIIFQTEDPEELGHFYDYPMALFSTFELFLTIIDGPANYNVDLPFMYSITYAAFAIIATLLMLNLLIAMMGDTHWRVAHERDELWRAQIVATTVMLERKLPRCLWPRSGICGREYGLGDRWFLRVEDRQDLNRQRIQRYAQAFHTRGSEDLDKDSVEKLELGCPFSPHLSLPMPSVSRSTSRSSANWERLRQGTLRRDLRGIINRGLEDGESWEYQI
Assay: Confocal microscopy of Cd2+ uptake in HEK-hTRPV6 cells (Leadmium Green)
Format: cell-based
Set-up: expressed in transfected cells
Conditions: 10 μM, 30 min, versus vehicle
Description: . The cells were also stained with the wheat germ agglutinin Alexa Fluor™ 594 conjugate to mark the cytoplasmic membrane.[35],[36] […]. page 64:
HEK-hTRPV6 were trypsinized and plated at 1 x 10^4 cells/well onto poly-D-lysine coated Nunc Lab-Tek II 8-well chambered coverglass plates (Faust Laborbedarf AG, Schaffhausen) using 100 μl DMEM supplemented with 10% FBS and 2 mM glutamine without antibiotics or phenol-red. After 24 h of incubation at 37 °C, the medium was replaced by 200 µL/well of a mixture of Leadmiun Green (final concentration: 5 ng/µL), Hoechst 33258 (final concentration: 1 ng/µL) and wheat germ agglutinin Alexa Fluor® 594 conjugate (final concentration: 5 ng/µL) in NCF buffer. The chamber was covered with aluminum foil and was incubated at 37 °C for 30 min. Then, the buffer was removed, cells were washed twice with fresh NCF buffer (2 x 200 µL) and another 190 µL of NCF containing 10X of 39 was added. For control cells, 200 µL of NCF was added after washing. The chamber was mounted in the confocal microscope and 10 µL of CdCl2 (final concentration: 50 μM) was added right after the start of imaging (total duration: 30 min). […]
Fig S3. […] The total fluorescence intensity for each channel was plotted in graphs (B) and (D), respectively for DMSO and compound 39. […]

## O=c1ccc(CN2CCN([C@H]3CC[C@@](O)(c4cccc(C(F)(F)F)c4)CC3)CC2)c[nH]1 [compound 39]
  Leadmium Green fluorescence after Cd2+ (50 μM): significantly less pronounced
